Laboratory results from patent publication US20200190073A1, “SUBSTITUTED SUCCINIMIDE DERIVATIVES AS PESTICIDES” (BASF SE, priority 2017, published 2020).
Read-outs that look alike come from different tables or passages of the source.

Assays:
Format in all cases: in vivo
[1] = test system: Green Peach Aphid (Myzus persicae); test: B.2 Green peach aphid, artificial diet, systemic; details: 72 h, read-out: mortality in comparison with untreated controls
Excerpt: B.2 Green Peach Aphid (Myzus persicae)
For evaluating control of green peach aphid (Myzus persicae) through systemic means the test unit consisted of 96-well-microtiter plates containing liquid artificial diet under an artificial mem brane.
The compounds were formulated using a solution containing 75% v/v water and 25% v/v DMSO. Different concentrations of formulated compounds were pipetted into the aphid diet, using a custom built pipetter, at two replications.
After application, 5-8 adult aphids were placed on the artificial membrane inside the microtiter plate wells. The aphids were then allowed to suck on the treated aphid diet and incubated at about 23±1° C. and about 50±5% relative humidity for 3 days. Aphid mortality and fecundity was then visually assessed.

[2] = test system: Green Soldier Stink Bug (Nezara viridula); test: B.11 Green soldier stink bug, sprayed soybean pods; details: 120 h, read-out: mortality in comparison with untreated controls
Method: B.11 Green Soldier Stink Bug (Nezara viridula)
The active compound was dissolved at the desired concentration in a mixture of 1:1 (vol:vol) distilled water:acetone. Surfactant (Kinetic HV) was added at a rate of 0.01% (vol/vol). The test solution was prepared at the day of use. Soybean pods were placed in glass Petri dishes lined with moist filter paper and inoculated with ten late 3rd instar N. viridula. Using a hand atomizer, approximately 2 ml solution is sprayed into each Petri dish. Assay arenas were kept at about 25° C. Percent mortality was recorded after 5 days.

[3] = test system: Vetch Aphid (Megoura viciae); test: B.3 Vetch aphid, broad bean leaf disks; details: foliar, 120 h, read-out: mortality in comparison with untreated controls
Method: B.3 Vetch Aphid (Megoura viciae)
For evaluating control of vetch aphid (Megoura viciae) through contact or systemic means the test unit consisted of 24-well-microtiter plates containing broad bean leaf disks.
The compounds were formulated using a solution containing 75% v/v water and 25% v/v DMSO. Different concentrations of formulated compounds were sprayed onto the leaf disks at 2.5 μl, using a custom built micro atomizer, at two replications.
After application, the leaf disks were air-dried and 5-8 adult aphids placed on the leaf disks inside the microtiter plate wells. The aphids were then allowed to suck on the treated leaf disks and incubated at about 23±1° C. and about 50±5% relative humidity for 5 days. Aphid mortality and fecundity was then visually assessed.

[4] = test system: Rice Green Leafhopper (Nephotettix virescens); test: B.8 Rice green leafhopper, sprayed rice seedlings; details: 72 h, read-out: mortality in comparison with untreated controls
Method: B.8 Rice Green Leafhopper (Nephotettix virescens)
(§1) Rice seedlings were cleaned and washed 24 hours before spraying. The active compounds were formulated in 1:1 acetone:water (vol:vol), and 0.01% vol/vol surfactant (Kinetic HV) was added. Potted rice seedlings were sprayed with 5-6 ml test solution, air dried, covered with Mylar cages and inoculated with 10 adults. Treated rice plants were kept at about 28-29° C. and relative humidity of about 50-60%. Percent mortality was recorded after 72 hours.

[5] = test system: Red Spider Mite (Tetranychus kanzawai); test: B.9 Red spider mite, sprayed cowpea beans; details: 72 h, read-out: mortality in comparison with untreated controls
Method: B.9 Red Spider Mite (Tetranychus kanzawai)
The active compound was dissolved at the desired concentration in a mixture of 1:1 (vol:vol) distilled water:acetone. Add surfactant (Kinetic HV) was added at a rate of 0.01% (vol/vol).The test solution was prepared at the day of use.
Potted cowpea beans of 4-5 days of age were cleaned with tap water and sprayed with 1-2 ml of the test solution using air driven hand atomizer. The treated plants were allowed to air dry and afterwards inoculated with 30 or more mites by clipping a cassava leaf section from rearing population. Treated plants were placed inside a holding room at about 25-27° C. and about 50-60% relative humidity. Percent mortality was assessed 72 hours after treatment.

[6] = test system: Diamond back moth (Plutella xylostella); test: B.1 Diamond back moth, cabbage leaf dip; details: foliar, 72 h, read-out: mortality in comparison with untreated controls
Method: B.1 Diamond back moth (Plutella xylostella)
The active compound was dissolved at the desired concentration in a mixture of 1:1 (vol:vol) distilled water:acetone. Surfactant (Kinetic HV) was added at a rate of 0.01% (vol/vol). The test solution was prepared at the day of use.
Leaves of cabbage were dipped in test solution and air-dried. Treated leaves were placed in petri dishes lined with moist filter paper and inoculated with ten 3rd instar larvae. Mortality was recorded 72 hours after treatment. Feeding damages were also recorded using a scale of 0-100%.

[7] = test system: Tobacco Budworm (Heliothis virescens); test: B.4 Tobacco budworm, insect diet with eggs; details: 120 h, read-out: mortality in comparison with untreated controls
Method: B.4 Tobacco Budworm (Heliothis virescens)
For evaluating control of tobacco budworm (Heliothis virescens) the test unit consisted of 96-well-microtiter plates containing an insect diet and 15-25 H. virescens eggs.
The compounds were formulated using a solution containing 75% v/v water and 25% v/v DMSO. Different concentrations of formulated compounds were sprayed onto the insect diet at 10 μl, using a custom built micro atomizer, at two replications.
After application, microtiter plates were incubated at about 28±1° C. and about 80±5% relative humidity for 5 days. Egg and larval mortality was then visually assessed.

[8] = test system: Boll Weevil (Anthonomus grandis); test: B.5 Boll weevil, insect diet with eggs; details: 120 h, read-out: mortality in comparison with untreated controls
Method: B.5 Boll Weevil (Anthonomus grandis)
For evaluating control of boll weevil (Anthonomus grandis) the test unit consisted of 96-well-microtiter plates containing an insect diet and 5-10 A. grandis eggs.
The compounds were formulated using a solution containing 75% v/v water and 25% v/v DMSO. Different concentrations of formulated compounds were sprayed onto the insect diet at 5 μl, using a custom built micro atomizer, at two replications.
After application, microtiter plates were incubated at about 25±1° C. and about 75±5% relative humidity for 5 days. Egg and larval mortality was then visually assessed.

[9] = test system: Orchid Thrips (Dichromothrips Corbetti); test: B.7 Orchid thrips, floral immersion; details: Thrips, 72 h, read-out: mortality in comparison with untreated controls
Method: B.7 Orchid Thrips (Dichromothrips Corbetti)
Dichromothrips corbetti adults used for bioassay were obtained from a colony maintained continuously under laboratory conditions. For testing purposes, the test compound is diluted in a 1:1 mixture of acetone:water (vol:vol), plus Kinetic HV at a rate of 0.01% v/v.
Thrips potency of each compound was evaluated by using a floral-immersion technique. All petals of individual, intact orchid flowers were dipped into treatment solution and allowed to dry in Petri dishes. Treated petals were placed into individual re-sealable plastic along with about 20 adult thrips. All test arenas were held under continuous light and a temperature of about 28° C. for duration of the assay. After 3 days, the numbers of live thrips were counted on each petal. The percent mortality was recorded 72 hours after treatment.

[10] = test system: Diamond back moth (Plutella xylostella); test: CE.6 Diamond back moth, contact activity, comparative test; details: read-out: % mortality in comparison to untreated controls
Method: (§2) The tables show % mortality in comparison to untreated controls.
CE.6 Diamond Back Moth (Plutella xylostella)
Ten third-instar larvae are sprayed with 1 ml test solution and introduce to untreated leaves held petri dished lined with moist filter paper. Mortality is recorded 24, 72, and 120 hours after treatment.

[11] = test system: Neotropical Brown Stink Bug (Euschistus heros); test: B.12 Neotropical brown stink bug, dipped pole bean; details: 120 h, read-out: mortality in comparison with untreated controls
Method: B.12 Neotropical Brown Stink Bug (Euschistus heros)
For evaluating control of Euschistus heros through contact the test unit consisted of 100 ml disposable plastic beakers with transparent lids.
The compounds were formulated using a solution containing 50% water and 50% acetone. 50 ml of different concentrations of formulated compounds or mixtures were prepared in a glass petri dish and used for dipping three 6 cm sections of fresh pole bean. Each treatment was replicated eight times.
After application, the pole bean sections were air-dried and 5 adult E. heros placed in each beaker. The E. heros were then allowed to suck on the treated pole bean sections and incubated at 23±1° C., 50±5% RH for 5 days. E. heros mortality was then visually assessed.

[12] = test system: Rice Green Leafhopper (Nephotettix virescens); test: CE.5 Rice green leafhopper, comparative test; details: read-out: % mortality in comparison to untreated controls
Method: as §2
CE.5 Rice Green Leafhopper (Nephotettix virescens)
as §1, with “50:50” for “1:1”, “0.1%” for “0.01%”, “(EL 620)” for “(Kinetic HV)”, “5” for “5-6”, “placed in” for “covered with Mylar”

[13] = test system: Cowpea Aphid (Aphis Craccivora); test: CE.1 Cowpea aphid, comparative test; details: read-out: % mortality in comparison to untreated controls; for mortality at 300 ppm: sprayed cowpea plants
Method: as §2
CE.1 Cowpea Aphid (Aphis Craccivora)
Potted cowpea plants colonized with approximately 100-150 aphids of various stages were sprayed after the pest population has been recorded. Population reduction was assessed after 24, 72, and 120 hours.

[14] = test system: Orchid Thrips (Dichromothrips Corbetti); test: CE.3 Orchid thrips, comparative test; details: 96 h, 10 ppm, after 4 days, read-out: % mortality in comparison to untreated controls
Method: as §2
CE.3 Orchid Thrips (Dichromothrips Corbetti)
Dichromothrips corbetti adults used for bioassay were obtained from a colony maintained continuously under laboratory conditions. For testing purposes, the test compound was diluted to a concentration of 300 ppm (wt compound: vol diluent) in a 1:1 mixture of acetone:water (vol:vol), plus 0.01% vol/vol Kinetic® surfactant.
Thrips potency of each compound was evaluated by using a floral-immersion technique. Plastic petri dishes were used as test arenas. All petals of individual, intact orchid flowers were dipped into treatment solution and allowed to dry. Treated flowers were placed into individual petri dishes along with 10-15 adult thrips. The petri dishes were then covered with lids. All test arenas were held under continuous light and a temperature of about 280C for duration of the assay. After 4 days, the numbers of live thrips were counted on each flower, and along inner walls of each petri dish. The level of thrips mortality was extrapolated from pre-treatment thrips numbers.

[15] = test system: Rice Brown Plant Hopper (Nilaparvata lugens); test: CE.2 Rice brown plant hopper, comparative test; details: 10 ppm, after 72 hours, read-out: % mortality in comparison to untreated controls
Method: as §2
CE.2 Rice Brown Plant Hopper (Nilaparvata lugens)
as §1, with “50:50” for “1:1”, “(vol:vol)” for “(vol:vol),”, “0.1%” for “0.01%”, “(EL 620)” for “(Kinetic HV)”, “5” for “5-6”, “placed in” for “covered with Mylar”

SMILES: CCN1C(=O)C[C@@H](NC(=O)c2ccc(C3=NO[C@@](c4cc(Cl)c(F)c(Cl)c4)(C(F)(F)F)C3)cc2Cl)C1=O [Compound I-1-21]
- mortality at 2500 ppm [1]: > 75%
- mortality at 300 ppm [2]: > 75%
- mortality at 2500 ppm [3]: > 75%
- mortality at 300 ppm [4]: > 75%
- mortality at 300 ppm [5]: > 75%
- mortality at 300 ppm [6]: > 75%
- mortality at 2500 ppm [7]: > 75%
- mortality at 2500 ppm [8]: > 75%
- mortality at 300 ppm [9]: > 75%
- mortality at 0.1 ppm [10]: 97%

SMILES: O=C(N[C@@H]1CC(=O)N(C2CC2)C1=O)c1ccc(C2=NO[C@@](c3cc(Cl)c(F)c(Cl)c3)(C(F)(F)F)C2)cc1Cl [Compound I-1-25, 2-Chloro-N-[(3R)-1-cyclopropyl-2,5-dioxo-pyrrolidin-3-yl]-4-[(5S)-5-(3,5-dichloro-4-fluoro-phenyl)-5-(trifluoromethyl)-4H-isoxazol-3-yl]benzamide]
- mortality at 2500 ppm [1]: > 75%
- mortality at 300 ppm [2]: > 75%
- mortality at 2500 ppm [3]: > 75%
- mortality at 300 ppm [4]: > 75%
- mortality at 300 ppm [5]: > 75%
- mortality at 300 ppm [6]: > 75%
- mortality at 2500 ppm [7]: > 75%
- mortality at 2500 ppm [8]: > 75%
- mortality at 300 ppm [9]: > 75%
- mortality at 500 ppm [11]: > 75%

SMILES: Cc1cc(C2=NOC(c3cc(Cl)c(F)c(Cl)c3)(C(F)(F)F)C2)ccc1C(=O)N[C@@H]1CC(=O)N(C)C1=O (some centres unmarked) [Compound I-1-27]
- mortality at 3 ppm ([12]; 72 h): 83%
- mortality at 2500 ppm [1]: > 75%
- mortality at 300 ppm [2]: > 75%
- mortality at 2500 ppm [3]: > 75%
- mortality at 300 ppm [4]: > 75%
- mortality at 10 ppm [13]: 93%
- mortality at 300 ppm [5]: > 75%
- mortality at 300 ppm [6]: > 75%
- mortality at 2500 ppm [7]: > 75%
- mortality at 2500 ppm [8]: > 75%
- mortality at 300 ppm [9]: > 75%
- mortality at 0.1 ppm [10]: 100%

SMILES: Cc1cc(C2=NOC(c3cc(Cl)cc(Cl)c3)(C(F)(F)F)C2)ccc1C(=O)N[C@@H]1CC(=O)N(C)C1=O (some centres unmarked) [Compound I-1-28]
- mortality at 3 ppm ([12]; 72 h): 79%
- mortality at 2500 ppm [1]: > 75%
- mortality at 300 ppm [2]: > 75%
- mortality at 2500 ppm [3]: > 75%
- mortality at 300 ppm [4]: > 75%
- mortality at 10 ppm [13]: 50%
- mortality at 300 ppm [5]: > 75%
- mortality at 300 ppm [6]: > 75%
- mortality at 2500 ppm [7]: > 75%
- mortality at 2500 ppm [8]: > 75%
- mortality at 300 ppm [9]: > 75%
- mortality at 500 ppm [11]: > 75%

SMILES: Cc1cc(C2=NSC(c3cc(Cl)cc(Cl)c3)(C(F)(F)F)C2)ccc1C(=O)NC1CCN(CC(F)(F)F)C1=O (centres unmarked) [No. 2-195 of WO 2013/092943, reference compound]
- mortality at 3 ppm ([12]; 3 ppm, after 72 hours): 0%
- mortality at 300 ppm [13]: 0%
- mortality at 10 ppm [14]: 0%
- mortality at 10 ppm [15]: 25%

SMILES: Cc1cc(C2=NSC(c3cc(Cl)cc(Cl)c3)(C(F)(F)F)C2)ccc1C(=O)NC1CCN(C)C1=O (centres unmarked) [No. 2-201 of WO 2013/092943]
- mortality at 3 ppm ([12]; 3 ppm, after 72 hours): 0%
- mortality at 300 ppm [13]: 0%
- mortality at 10 ppm [15]: 0%

SMILES: CN1CCC(NC(=O)c2ccc(C3=NOC(c4cc(Cl)c(F)c(Cl)c4)(C(F)(F)F)C3)c3c2CCC3)C1=O (centres unmarked) [Tab. 126, A-9 of WO 2015128358, reference compound]
- mortality at 0.1 ppm [10]: 0%

SMILES: CCN1CCC(NC(=O)c2ccc(C3=NOC(c4cc(Cl)c(F)c(Cl)c4)(C(F)(F)F)C3)c3c2CCC3)C1=O (centres unmarked) [Tab. 127, A-9 of WO 2015128358, reference compound]
- mortality at 0.1 ppm [10]: 0%
